Structures are written as SMILES. “Also recorded” adds a separate entry of the source.

The subject of data set [1] is RP27M2 (Rpl27a^low/+:Mdm2^+/−) mice. Description: PFT / c-PFT treatment of pregnant mice carrying RP27M2 embryos (high-p53 lymphedema model). The conditions noted are these: for ratio of mutant pups at birth: RP27M2; for ratio of mutant pups at birth / edema: mothers treated daily from E11.5; for cutaneous hemorrhaging / embryonic (in utero) lethality: RP27M2 mutants, mothers treated daily from E11.5 until delivery; for edema: RP27M2 pups. The format is in vivo, mouse. Here is the method: (§1) All mice were maintained on a C57BL/6J background. For timed pregnancies, the first day of observed plug were recorded as day 0.5 post-coitum or embryonic day 0.5 (E0.5). Mice haploinsufficient for the ribosomal protein L27a (Rpl27^low/+) are crossed with Mdm2 or Mdm4 heterozygous mice (Mdm2^+/− or Mdm4^+/−) to generate WT, Rpl27^low/+, Mdm2^+/−, Rpl27^low/+:Mdm2^+/− (RP27M2), Mdm4^+/−, and Rpl27^low/+:Mdm4^+/− mice (RP27M4). To generate mice on a p53-deficient background, we crossed Rpl27^low/+ mice to Mdm2^−/−:p53^−/− or Mdm4^−/−:p53^−/− mice. We therefore obtained RP27M2:p53^+/− mice and RP27M4:p53^+/− mice (FIG. 8). Genotypes were determined by PCR analysis of extracted DNA from tails using published primer sets for Mdm2, Mdm4, and p53. The sex of embryos was determined by detection of Sry and Raspn genes by PCR. Animal care and euthanasia guidelines of the Colorado Institutional Animal Care and Use Committee were followed for all animal work.
(§2) A 10 mM stock of Pifithrin-α (PFT-α, Selleck Bio, cat. S2929) was diluted 1:10 in 1×PBS, protected from light and used instantly. Pregnant mice were injected intraperitoneally from E11.5 to E16.5 and subcutaneously from E17.5 until delivery at 2.2 mg/kg of weight. Animal were monitored daily post-treatment and weights were recorded after delivery.
(§3) Tissues were fixed in 4% neutral buffered paraformaldehyde, processed, and embedded in paraffin by the UCD Research Histology core. Sagittal sections (5 μm) were subjected to immunofluorescence staining (IF) as previously described and according to the manufacturer's recommendations. The primary antibodies used for IF were monoclonal mouse Prox-1 (1:50, P21936, Thermofisher Scientific, Massachusetts, USA), monoclonal rabbit Lyve-1 (1:100, ab14917, Abcam Inc., California, USA), polyclonal rabbit Ki-67 (1:1000, VP-K451, Vector Laboratories, California, USA) and mouse monoclonal p21 (1:100, sc-6246, Santa Cruz Biotechnology, California, USA) antibodies. We used anti-rabbit or anti-mouse Alexa Fluor 594 or Alexa Fluor 488 conjugated secondary antibodies (1:1000, Invitrogen, California, USA), captured the images on a Nikon Eclipse 90i, and quantified using the ImageJ software. Pediatric lymphatic edema was categorized using the ISSVA Classification of Vascular Anomalies and confirmed by PdPn (D2-40 antibody, Ventana or RnD Systems AF3670) staining. IHC for p53 on human tissues were performed using the D-07 antibody (Ventana) on automated strainers (Ventana Ultra) following the manufacturer's recommendations and Clinical Laboratory Improvement Amendments (CLIA) certified procedures. For the visualization of the three-dimensional lymphatic vasculature, murine skin were fixed in 4% Paraformaldehyde (PFA) for 2-4 hours at room temperature for whole mount staining. Tissues were then subjected to procedures as published. H&E was performed following Harris protocols for staining.
(§4) To confirm the contribution of p53 overexpression to lymphedema, a pharmacological approach was used by testing a known reversible p53 negative modulator, Pifithrin-α (PFT). For this, time mating of Rpl27^low/+ mice was set up with Mdm2^+/−, or Mdm4^+/−, mice. Females carrying both models were injected intraperitoneally (IP) daily from E11.5 to […] and their weight gain was recorded until delivery. […] 100% of PFT-RP27M4 mice died did shortly after birth. […] It was speculated that the extent of phenotypic rescue at the low PFT dose used may be determined by the severity of the presentation. Therefore, increasing the amount of PFT given to the RP27M4 carrying mothers may allow for RP27M4 pups to survive.

In data set [2] the test system is RP27M4 (Rpl27a^low/+:Mdm4^+/−) mice. Briefly: PFT / c-PFT treatment of pregnant mice carrying RP27M4 embryos (high-p53 lymphedema model). The conditions noted are these: for ratio of mutant pups at birth: RP27M4; for ratio of mutant pups at birth / edema: mothers treated daily from E11.5; for cutaneous hemorrhaging / embryonic (in utero) lethality: RP27M4 mutants, mothers treated daily from E11.5 until delivery; for edema: RP27M4 pups. The class given is in vivo, mouse. As for the experimental part:
as §1, §2, §3, §4

For data set [3] the following is noted: DMSO; cited from earlier work.

`Br.Cc1ccc(C(=O)Cn2c3c(sc2=N)CCCC3)cc1` [PFT, 2-[2-Imino-4,5,6,7-tetrahydrobenzothiazol-3-yl]-1-p-tolylethanone hydrobromide]: the “appearance of treated pups compared with WT” value in data set [1] (PFT-RP27M2 mice) is “indistinguishable from WT”. In addition, the “pups survived until at least 10 days old” value in data set [1] (PFT-RP27M2 mice, 2.2 mg/kg to mothers) came to 100%. For the same molecule, the “subcutaneous edema, H&E staining of dorsal skin” value in data set [1] (RP27M2, P0 skin) is recorded as “no evident subcutaneous edema”; in data set [2] (RP27M4, P0 skin), “no evident subcutaneous edema”. The “lymphatic vessel size, Lyve-1 staining of skin” value was “reverted to a normal size” in data set [1] (RP27M2, postnatal day 0 (P0)) and “reverted to a normal size” in data set [2] (RP27M4, postnatal day 0 (P0)). Further, the “ratio of mutant pups at birth” value is on record as “born following a Mendelian ratio; also recorded: born at a Mendelian ratio” in data set [1] (hydrobromide); “born at Mendelian ratio” in data set [1] (listed as PFT-a, hydrobromide); “born following a Mendelian ratio; also recorded: born at a Mendelian ratio” in data set [2] (hydrobromide); “born at Mendelian ratio” in data set [2] (listed as PFT-a, hydrobromide). In addition, the cutaneous hemorrhaging result in data set [1] (hydrobromide) is “reversed symptoms of edema and hemorrhaging; also recorded: eliminates visible skin hemorrhaging; also recorded: no signs of hemorrhaging”; in data set [1] (listed as PFT-a, hydrobromide), “do not exhibit cutaneous hemorrhaging”; in data set [2] (hydrobromide) it was “reversed symptoms of edema and hemorrhaging; also recorded: eliminates visible skin hemorrhaging; also recorded: no signs of hemorrhaging”; in data set [2] (listed as PFT-a, hydrobromide), “do not exhibit cutaneous hemorrhaging”. In addition, the “embryonic (in utero) lethality” value in data set [1] (hydrobromide) and in data set [2] (hydrobromide) was “rescued; also recorded: rescues in utero lethality” in each case. Also, the edema result is “reversed symptoms of edema and hemorrhaging” in data set [1] (hydrobromide); “do not exhibit cutaneous hemorrhaging and severe edema” in data set [1] (listed as PFT-a, hydrobromide); “reversed symptoms of edema and hemorrhaging; also recorded: considerably reduced” in data set [2] (hydrobromide); “do not exhibit cutaneous hemorrhaging and severe edema” in data set [2] (listed as PFT-a, hydrobromide). For the same molecule, the “pups died shortly after birth” value in data set [2] (PFT-RP27M4 mice, 2.2 mg/kg to mothers) is 100%. Further, the postnatal survival entry in data set [2] (RP27M4 pups after PFT treatment of mothers) is “did not survive past the first day”. In data set [3], the solubility entry was “soluble”.

For the molecule `Br.Cc1ccc(-c2cn3c4c(sc3n2)CCCC4)cc1` [c-PFT, Cyclic pifithrin-α hydrobromide], the cutaneous hemorrhaging result in data set [1] and in data set [2] was “eliminates visible skin hemorrhaging” throughout. The “embryonic (in utero) lethality” value in data set [1] (hydrobromide) and in data set [2] (hydrobromide) was “rescued; also recorded: rescues in utero lethality” throughout.

The values are drawn from US12029732B2, “Treatment of vascular and lymphatic disease” (priority 2019, dated 2024).
